{
  "source": "paper PMC5773577",
  "about": "“Novel Miniature Membrane Active Lipopeptidomimetics against Planktonic and Biofilm Embedded Methicillin-Resistant Staphylococcus aureus” (Scientific Reports, 2018)",
  "key": {"MRSA ATCC 33591": {"tested_on": "MRSA ATCC 33591", "experiment": "Cell viability corresponding to membrane depolarization experiment", "assay_type": "cell-based, Staphylococcus aureus", "settings": "dye-loaded cells in HEPES-glucose buffer, 4 × MIC, 2 min incubation", "experimental": "Briefly, exponential phase cells grown in MHB were harvested by centrifugation, washed and re-suspended in respiration buffer (5 mM HEPES, 20 mM glucose, pH 7.2) to 2.5 × 10^6 CFU/mL. […] The dye-loaded cells (800 μL) were then treated with peptidomimetics at respective 1× and 4× MIC concentrations (2–20 μL) and consequent fluorescence increase after 2 min of addition was measured in a Shimadzu RF-5301 PC spectrofluorimeter. As controls IL, melittin and VAN were also assayed under identical conditions. […] The viability of dye-loaded cells corresponding to depolarization experiment at 4 × MIC concentration was also measured by plating the diluted aliquots onto BHI agar plates.\nCell viability corresponding to membrane depolarization experiment.\ndye-loaded cells suspended in HEPES-glucose buffer (5 mM, 20 mM glucose, pH 7.2)\nwere incubated with different test agents for 2 min and subsequently diluted\nappropriately and plated on BHI agar plates. The plates were incubated at 37 °C for 16-\n18 h and colonies were counted. The experiment was repeated on two different days\nand mean ± S.D. is presented here."}, "[1]": {"tested_on": "E. faecium (E-7846), clinical isolate of vancomycin-resistant E. faecium", "experiment": "organism not typed", "assay_type": "cell-based, Enterococcus faecium", "settings": "read-out: Minimum inhibitory concentration, MIC", "method": "(§1) The antibacterial activity was evaluated as MIC using slight modifications to a serial broth micro dilution method as reported previously[66],[67]. Briefly, to each treatment well of the 96-well plate (Corning Incorporated, USA) 10 μL of peptidomimetic/antibiotic was added and subsequently diluted serial 2-fold in 0.2% BSA (in 0.01% acetic acid). Then to each well of the first 11 columns 100 μL of mid-log phase bacterial suspension in MHB medium was added to get 2–5 × 10^5 CFU/mL. Cultures without test peptidomimetics/antibiotics were used as growth control. Uninoculated MHB medium was used as negative control. The microtitre plates were incubated overnight with agitation (180 rpm) at 37 °C. After 16–18 h incubation, absorbance was read at 600 nm using an ELISA plate reader (Molecular Devices, Sunnyvale, CA, USA). The experiments were carried out in duplicate on at least three different days."}, "[2]": {"tested_on": "E. faecium (E-447), clinical isolate of vancomycin-resistant E. faecium", "experiment": "organism not typed", "assay_type": "cell-based, Enterococcus faecium", "settings": "read-out: Minimum inhibitory concentration, MIC", "method": "as §1"}, "[3]": {"tested_on": "Methicillin-resistant S. epidermidis (ATCC 35984)", "experiment": "microbe, parasite or virus in culture", "assay_type": "cell-based, Staphylococcus epidermidis", "settings": "Staphylococcus epidermidis, ATCC 35984 / MRSE; MRSE ATCC 35984; MHB, 2–5 × 10^5 CFU/mL, 16–18 h, 37 °C, OD600; read-out: Minimum inhibitory concentration, MIC", "method": "as §1"}, "[4]": {"tested_on": "exponential phase MRSA ATCC 33591", "experiment": "Bacterial killing kinetics, exponential phase cells in MHB medium", "assay_type": "cell-based, Staphylococcus aureus", "settings": "24 h", "method": "(§2) The kinetics of bacterial killing was determined against MRSA ATCC 33591 strain using drop plate method as described previously with slight modifications[51],[67],[70],[71]. The experiment was performed against exponential phase MRSA in normal medium and stationary phase MRSA in nutrient-depleted medium. For the preparation of nutrient-depleted medium, the primary MRSA ATCC 33591 culture in MHB medium was allowed to grow for 18 h at 37 °C and the cells were removed by centrifugation. The cell pellet was used for stationary phase culture and the spent medium supernatant was used as a nutrient-depleted medium. For obtaining exponential phase cells, MRSA was grown overnight in MHB and 100 μL suspension was used to inoculate 10 mL fresh MHB medium. The cells were incubated at 37 °C for 4–6 h to reach exponential phase.\n(§3) For the experiments, both exponential and stationary phase cells were re-suspended separately in normal or nutrient-depleted mediums to OD600 = 0.5 (~10^8 CFU/mL). A 25 µL aliquot of this suspension was added to 475 μL of respective medium with or without test peptidomimetics/antibiotics in an eppendorf tube. […] The agar plates were incubated at 37 °C for 16–18 h and the colonies were counted (dilutions having colonies in the range of 10–100 were counted). […]"}, "MRSA ATCC 33591 biofilm [5]": {"tested_on": "MRSA ATCC 33591 biofilm", "experiment": "Biofilm formation inhibition, crystal violet (CV) assay", "assay_type": "cell-based, Staphylococcus aureus", "settings": "24 h biofilm formation inhibition, 2.5 μg/mL", "method": "(§4) For the experiment, a protocol as described previously was used with slight modifications. Briefly, desired concentrations of the test agents in PBS were added to the wells of a 96-well plate (100 μL). Thereafter, overnight grown stationary phase MRSA ATCC 33591 culture (~4 × 10^5 CFU/mL) in TSB medium (supplemented with 0.25% glucose and 0.5% NaCl) was added to the 96-well plates (100 μL). The plates were incubated at 37 °C without shaking for 24 h. After 24 h, the used medium was discarded and the biofilms formed were washed with PBS once. Subsequently, CV and AB assays were performed to quantify biomass and viability respectively, as described below:\nFor CV assay after washing the biofilms, the plates were heat fixed at 60 °C for 1 h and 0.1% aqueous CV solution (200 μL) was added to the wells. After 15 min incubation, excess CV was washed off and biomass adhered CV was dissolved in 33% glacial acetic acid (200 μL). The plates were kept at room temperature for 15 min. […] To quantify CV associated biomass, the absorbance was read at 570 nm.\nThe experiments were repeated on two different days and on each day 6 wells were used for a single treatment. […] Corresponding to CV and AB assay the viability of cells upon treatment was also evaluated. […] The agar plates were incubated at 37 °C for 16–24 h and CFUs were counted. […]"}, "[6]": {"tested_on": "stationary phase MRSA ATCC 33591", "experiment": "Bacterial killing kinetics, stationary phase cells in nutrient-depleted MHB medium", "assay_type": "cell-based, Staphylococcus aureus", "settings": "24 h", "method": "as §2, §3"}, "[7]": {"tested_on": "Vancomycin-resistant E. faecium (ATCC 700221)", "experiment": "microbe, parasite or virus in culture", "assay_type": "cell-based", "settings": "Enterococcus faecium, ATCC700221, MHB, 2–5 × 10^5 CFU/mL, 16–18 h, 37 °C, read-out: Minimum inhibitory concentration, MIC", "method": "as §1"}, "MRSA ATCC 33591 biofilm [8]": {"tested_on": "MRSA ATCC 33591 biofilm", "experiment": "Biofilm formation inhibition, alamar blue (AB) assay", "assay_type": "cell-based, Staphylococcus aureus", "settings": "24 h biofilm formation inhibition, 2.5 μg/mL", "method": "as §4\nFor AB assay, after washing the treated biofilms, a solution of 10% AB reagent in TSB medium (200 μL) was added to the wells of the plates. The plates were sonicated briefly in a bath sonicator (5 min) and kept at room temperature for 30 min in dark. After 30 min, fluorescence was measured by exciting the samples at 550 nm and collecting emission at 590 nm.\nThe experiments were repeated on two different days and on each day 6 wells were used for a single treatment. Mean ± S.E. for both CV assay and AB assay is presented here. Corresponding to CV and AB assay the viability of cells upon treatment was also evaluated. […] The agar plates were incubated at 37 °C for 16–24 h and CFUs were counted. […]"}, "MRSA ATCC 33591 biofilm [9]": {"tested_on": "MRSA ATCC 33591 biofilm", "experiment": "Biofilm formation inhibition, viable count assay", "assay_type": "cell-based, Staphylococcus aureus", "settings": "24 h biofilm formation inhibition, 2.5 μg/mL", "method": "as §4\nThe experiments were repeated on two different days and on each day 6 wells were used for a single treatment. Mean ± S.E. for both CV assay and AB assay is presented here. Corresponding to CV and AB assay the viability of cells upon treatment was also evaluated. Towards this 200 μL PBS was added to washed and treated wells of the 96-well plate and the contents were scraped thoroughly. The resulting bacterial suspension was sonicated briefly, diluted in PBS and plated on BHI agar plates. The agar plates were incubated at 37 °C for 16–24 h and CFUs were counted. Mean ± S.E. data from two independent experiments performed on two different days is shown here."}},
  "data": [
    {"compound": "CN[C@H](CC(C)C)C(=O)N[C@H]1C(=O)N[C@@H](CC(N)=O)C(=O)N[C@H]2C(=O)N[C@H]3C(=O)N[C@H](C(=O)N[C@H](C(=O)O)c4cc(O)cc(O)c4-c4cc3ccc4O)[C@H](O)c3ccc(c(Cl)c3)Oc3cc2cc(c3O[C@@H]2O[C@H](CO)[C@@H](O)[C@H](O)[C@H]2O[C@H]2C[C@](C)(N)[C@H](O)[C@H](C)O2)Oc2ccc(cc2Cl)[C@H]1O", "note": "[VAN, vancomycin]", "values": [
      {"measurement": "log reduction in viability relative to untreated control", "setting": "MRSA ATCC 33591", "value": 0.6, "unit": "log"},
      {"measurement": "MIC", "setting": "[1]", "value": "> 45.4", "unit": "µg/mL"},
      {"measurement": "MIC", "setting": "[2]", "value": "> 45.4", "unit": "µg/mL"},
      {"measurement": "MIC", "setting": "[3]", "value": 2.8, "unit": "µg/mL"},
      {"measurement": "log reduction in CFU/mL", "setting": "[4]; 4 × MIC", "value": "~ 2.3 log"},
      {"measurement": "log reduction in CFU/mL", "setting": "[4]; 10 × MIC", "value": "~ 2.3 log"},
      {"measurement": "reduction of biomass (CV assay)", "setting": "MRSA ATCC 33591 biofilm [5]", "value": "> 95", "unit": "%"},
      {"measurement": "log reduction in CFU/mL", "setting": "[6]; 4 × MIC", "value": "~ 1.1 log"},
      {"measurement": "log reduction in CFU/mL", "setting": "[6]; 10 × MIC", "value": "~ 1.1 log"},
      {"measurement": "MIC", "setting": "[7]", "value": "> 45.4", "unit": "µg/mL"},
      {"measurement": "% viable cells compared to untreated control (AB assay)", "setting": "MRSA ATCC 33591 biofilm [8]", "value": "< 1", "unit": "%"},
      {"measurement": "log reduction in viability compared to 24 h growth control", "setting": "MRSA ATCC 33591 biofilm [9]", "value": "> 3", "unit": "log"},
      {"measurement": "remaining viable count", "setting": "MRSA ATCC 33591 biofilm [9]; mean ± S.E., two experiments, untreated 7.59 ± 0.08", "value": "1.44 ± 1.44", "unit": "log CFU/mL"}
    ]}
  ]
}
